ChEMBL document CHEMBL4507261, “Data for DCP probe A-192621” (2021)

How the values were obtained:
[1] = molecular target: RAC-beta serine/threonine-protein kinase (Homo sapiens) (UniProt P31751); settings: Compound concentration 1000.0 nM
[2] = molecular target: Serine/threonine-protein kinase SIK1 (Homo sapiens) (UniProt P57059); settings: Compound concentration 1000.0 nM
[3] = molecular target: Non-receptor tyrosine-protein kinase TYK2 (Homo sapiens) (UniProt P29597); settings: Compound concentration 1000.0 nM
[4] = molecular target: Vascular endothelial growth factor receptor 2 (Homo sapiens) (UniProt P35968); settings: Compound concentration 1000.0 nM
[5] = test system: Receptor-type tyrosine-protein kinase FLT3 (Homo sapiens), P36888 [UNDEFINED MUTATION]; settings: Compound concentration 1000.0 nM
[6] = molecular target: Tyrosine-protein kinase Mer (Homo sapiens) (UniProt Q12866); settings: Compound concentration 1000.0 nM
[7] = molecular target: Tyrosine-protein kinase Fyn (Homo sapiens) (UniProt P06241); settings: Compound concentration 1000.0 nM
[8] = molecular target: Phosphatidylinositol 4,5-bisphosphate 3-kinase catalytic subunit gamma isoform (Homo sapiens) (UniProt P48736); settings: Compound concentration 1000.0 nM
[9] = molecular target: Tyrosine-protein kinase receptor Tie-1 (Homo sapiens) (UniProt P35590); settings: Compound concentration 1000.0 nM
[10] = molecular target: Serine/threonine-protein kinase 3 (Homo sapiens) (UniProt Q13188); settings: Compound concentration 1000.0 nM
[11] = test system: Epidermal growth factor receptor (Homo sapiens), P00533 [T790M]; settings: Compound concentration 1000.0 nM
[12] = test system: ALK tyrosine kinase receptor (Homo sapiens), Q9UM73 [C1156Y]; settings: Compound concentration 1000.0 nM
[13] = molecular target: Tyrosine-protein kinase ABL2 (Homo sapiens) (UniProt P42684); settings: Compound concentration 1000.0 nM
[14] = molecular target: 5'-AMP-activated protein kinase catalytic subunit alpha-2 (Homo sapiens) (UniProt P54646); settings: Compound concentration 1000.0 nM
[15] = molecular target: Serine/threonine-protein kinase PAK 1 (Homo sapiens) (UniProt Q13153); settings: Compound concentration 1000.0 nM
[16] = molecular target: Mitogen-activated protein kinase 13 (Homo sapiens) (UniProt O15264); settings: Compound concentration 1000.0 nM
[17] = molecular target: Ankyrin repeat and protein kinase domain-containing protein 1 (Homo sapiens) (UniProt Q8NFD2); settings: Compound concentration 1000.0 nM
[18] = molecular target: Serine/threonine-protein kinase TAO3 (Homo sapiens) (UniProt Q9H2K8); settings: Compound concentration 1000.0 nM
[19] = molecular target: Mitogen-activated protein kinase kinase kinase kinase 5 (Homo sapiens) (UniProt Q9Y4K4); settings: Compound concentration 1000.0 nM
[20] = molecular target: Serine/threonine-protein kinase B-raf (Homo sapiens) (UniProt P15056); settings: Compound concentration 1000.0 nM
[21] = molecular target: Tyrosine-protein kinase Fer (Homo sapiens) (UniProt P16591); settings: Compound concentration 1000.0 nM
[22] = molecular target: Ephrin type-B receptor 2 (Homo sapiens) (UniProt P29323); settings: Compound concentration 1000.0 nM
[23] = molecular target: Ribosomal protein S6 kinase beta-1 (Homo sapiens) (UniProt P23443); settings: Compound concentration 1000.0 nM
[24] = molecular target: Dual specificity mitogen-activated protein kinase kinase 1 (Homo sapiens) (UniProt Q02750); settings: Compound concentration 1000.0 nM
[25] = molecular target: Sodium/potassium-transporting ATPase (Sus scrofa) (UniProt P05027+P05024+D2WKD8+D2WKD7+F1ST41); experiment: ATPase (Na+/K+) Eurofins-Cerep enzyme and uptake assay; assay type: protein-complex assay; settings: Compound concentration 10.0 uM
[26] = molecular target: Death-associated protein kinase 2 (Homo sapiens) (UniProt Q9UIK4); settings: Compound concentration 1000.0 nM
[27] = test system: Tyrosine-protein kinase ABL1 (Homo sapiens), P00519 [F317L]; settings: Compound concentration 1000.0 nM
[28] = molecular target: Homeodomain-interacting protein kinase 2 (Homo sapiens) (UniProt Q9H2X6); settings: Compound concentration 1000.0 nM
[29] = molecular target: Citron Rho-interacting kinase (Homo sapiens) (UniProt O14578); settings: Compound concentration 1000.0 nM
[30] = molecular target: Serine/threonine-protein kinase ICK (Homo sapiens) (UniProt Q9UPZ9); settings: Compound concentration 1000.0 nM
[31] = molecular target: Cyclin-dependent kinase 16 (Homo sapiens) (UniProt Q00536); settings: Compound concentration 1000.0 nM
Cyclin-dependent kinase 16 (Homo sapiens), sequence (Q00536 whole entry): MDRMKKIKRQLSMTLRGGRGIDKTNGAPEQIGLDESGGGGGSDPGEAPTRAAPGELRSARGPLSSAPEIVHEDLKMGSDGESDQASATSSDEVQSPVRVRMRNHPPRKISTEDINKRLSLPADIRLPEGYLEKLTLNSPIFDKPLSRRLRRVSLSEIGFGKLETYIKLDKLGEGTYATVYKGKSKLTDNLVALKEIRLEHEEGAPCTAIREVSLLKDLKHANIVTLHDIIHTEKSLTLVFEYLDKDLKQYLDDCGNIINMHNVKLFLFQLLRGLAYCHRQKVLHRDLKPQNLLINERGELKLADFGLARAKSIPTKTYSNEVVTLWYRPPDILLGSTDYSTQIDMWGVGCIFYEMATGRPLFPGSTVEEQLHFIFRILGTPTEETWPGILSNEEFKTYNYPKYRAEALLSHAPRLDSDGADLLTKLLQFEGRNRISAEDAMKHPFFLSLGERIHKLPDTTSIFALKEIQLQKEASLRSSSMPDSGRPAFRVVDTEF

[32] = molecular target: Substance-P receptor (Homo sapiens) (UniProt P25103); experiment: NK1 (h) Eurofins-Cerep binding assay; design: ligand concentration 0.05 nM; settings: filed as agonist, Compound concentration 10.0 uM
[33] = molecular target: Delta-type opioid receptor (Homo sapiens) (UniProt P41143); experiment: delta (DOP) (h) Eurofins-Cerep binding assay; design: ligand concentration 0.5 nM; settings: filed as agonist, Compound concentration 10.0 uM
[34] = test system: Receptor-type tyrosine-protein kinase FLT3 (Homo sapiens), P36888 [K663Q]; settings: Compound concentration 1000.0 nM
[35] = molecular target: Mitogen-activated protein kinase kinase kinase 11 (Homo sapiens) (UniProt Q16584); settings: Compound concentration 1000.0 nM
[36] = molecular target: Muscarinic acetylcholine receptor M3 (Homo sapiens) (UniProt P20309); experiment: M3 (h) Eurofins-Cerep binding assay; design: ligand concentration 0.2 nM; settings: filed as antagonist, Compound concentration 10.0 uM
Muscarinic acetylcholine receptor M3 (Homo sapiens), sequence (P20309 whole entry, looked up): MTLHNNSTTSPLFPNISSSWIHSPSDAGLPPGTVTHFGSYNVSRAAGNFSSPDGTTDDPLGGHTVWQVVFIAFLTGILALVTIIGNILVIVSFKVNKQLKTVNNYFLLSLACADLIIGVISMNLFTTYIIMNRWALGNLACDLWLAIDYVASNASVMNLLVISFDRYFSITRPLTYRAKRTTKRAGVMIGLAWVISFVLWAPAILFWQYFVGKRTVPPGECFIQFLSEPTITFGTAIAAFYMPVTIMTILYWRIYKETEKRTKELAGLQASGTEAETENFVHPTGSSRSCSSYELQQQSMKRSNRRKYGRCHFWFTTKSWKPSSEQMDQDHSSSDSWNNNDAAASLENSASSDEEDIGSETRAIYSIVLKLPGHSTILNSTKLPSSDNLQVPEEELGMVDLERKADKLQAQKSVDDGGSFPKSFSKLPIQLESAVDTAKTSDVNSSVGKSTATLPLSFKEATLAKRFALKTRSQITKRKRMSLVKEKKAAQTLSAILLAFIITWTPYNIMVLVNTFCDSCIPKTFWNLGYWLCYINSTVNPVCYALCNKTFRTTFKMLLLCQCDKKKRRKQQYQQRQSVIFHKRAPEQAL

[37] = test system: Tyrosine-protein kinase ABL1 (Homo sapiens), P00519 [H396P]; settings: Compound concentration 1000.0 nM
[38] = molecular target: Myosin light chain kinase, smooth muscle (Homo sapiens) (UniProt Q15746); settings: Compound concentration 1000.0 nM
[39] = molecular target: Mitogen-activated protein kinase kinase kinase kinase 4 (Homo sapiens) (UniProt O95819); settings: Compound concentration 1000.0 nM
Mitogen-activated protein kinase kinase kinase kinase 4 (Homo sapiens), sequence (O95819 2-1239 limits assumed): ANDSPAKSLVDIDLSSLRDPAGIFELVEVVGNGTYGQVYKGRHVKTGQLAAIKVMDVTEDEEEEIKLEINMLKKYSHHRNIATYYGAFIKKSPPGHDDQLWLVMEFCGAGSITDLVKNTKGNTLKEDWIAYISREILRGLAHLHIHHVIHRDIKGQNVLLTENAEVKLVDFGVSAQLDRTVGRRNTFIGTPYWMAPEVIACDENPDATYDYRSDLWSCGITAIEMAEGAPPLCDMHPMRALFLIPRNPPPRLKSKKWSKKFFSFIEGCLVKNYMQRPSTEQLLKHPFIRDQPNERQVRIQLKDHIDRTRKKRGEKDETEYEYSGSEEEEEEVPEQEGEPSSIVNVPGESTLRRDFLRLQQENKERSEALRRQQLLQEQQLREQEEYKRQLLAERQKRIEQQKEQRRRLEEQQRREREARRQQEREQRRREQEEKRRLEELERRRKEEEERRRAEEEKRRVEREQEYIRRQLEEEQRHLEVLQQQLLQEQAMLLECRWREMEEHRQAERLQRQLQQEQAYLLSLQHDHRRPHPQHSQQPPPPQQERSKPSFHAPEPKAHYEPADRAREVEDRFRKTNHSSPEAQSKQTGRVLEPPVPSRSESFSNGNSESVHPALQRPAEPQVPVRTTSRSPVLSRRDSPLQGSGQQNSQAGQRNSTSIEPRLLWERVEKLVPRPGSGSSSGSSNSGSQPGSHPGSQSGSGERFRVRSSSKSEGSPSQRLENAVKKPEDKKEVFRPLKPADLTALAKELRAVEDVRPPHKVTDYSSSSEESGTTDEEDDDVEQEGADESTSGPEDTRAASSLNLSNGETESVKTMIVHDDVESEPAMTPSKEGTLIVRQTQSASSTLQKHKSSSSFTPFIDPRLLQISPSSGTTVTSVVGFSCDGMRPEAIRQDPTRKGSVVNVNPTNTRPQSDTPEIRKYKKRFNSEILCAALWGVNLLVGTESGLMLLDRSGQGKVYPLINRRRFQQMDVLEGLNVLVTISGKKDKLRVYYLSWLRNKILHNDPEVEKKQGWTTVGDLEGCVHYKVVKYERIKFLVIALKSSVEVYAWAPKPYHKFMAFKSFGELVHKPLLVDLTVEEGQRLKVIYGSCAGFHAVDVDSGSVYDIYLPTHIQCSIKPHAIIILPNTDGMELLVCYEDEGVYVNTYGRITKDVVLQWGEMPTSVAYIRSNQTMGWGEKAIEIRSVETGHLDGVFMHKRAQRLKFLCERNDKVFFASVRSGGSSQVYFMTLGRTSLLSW

[40] = molecular target: Serine/threonine-protein kinase 32B (Homo sapiens) (UniProt Q9NY57); settings: Compound concentration 1000.0 nM
[41] = molecular target: Serine/threonine-protein kinase ULK3 (Homo sapiens) (UniProt Q6PHR2); settings: Compound concentration 1000.0 nM
[42] = molecular target: Activin receptor type-1B (Homo sapiens) (UniProt P36896); settings: Compound concentration 1000.0 nM
Activin receptor type-1B (Homo sapiens), sequence (P36896 whole entry): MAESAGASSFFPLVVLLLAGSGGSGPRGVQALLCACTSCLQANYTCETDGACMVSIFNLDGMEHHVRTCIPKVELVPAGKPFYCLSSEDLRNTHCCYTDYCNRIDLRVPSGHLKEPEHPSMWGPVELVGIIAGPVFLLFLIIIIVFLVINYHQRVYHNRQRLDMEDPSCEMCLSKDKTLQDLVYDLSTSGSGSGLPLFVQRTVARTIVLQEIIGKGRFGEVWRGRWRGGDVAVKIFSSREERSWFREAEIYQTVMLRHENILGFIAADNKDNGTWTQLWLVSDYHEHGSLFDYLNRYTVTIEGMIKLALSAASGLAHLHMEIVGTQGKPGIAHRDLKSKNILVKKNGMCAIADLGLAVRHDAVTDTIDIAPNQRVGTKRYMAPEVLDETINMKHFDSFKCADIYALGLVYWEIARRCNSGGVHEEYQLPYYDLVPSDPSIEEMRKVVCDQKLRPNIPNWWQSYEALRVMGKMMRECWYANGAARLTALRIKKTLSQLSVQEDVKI

[43] = molecular target: Mitogen-activated protein kinase kinase kinase kinase 3 (Homo sapiens) (UniProt Q8IVH8); settings: Compound concentration 1000.0 nM
Mitogen-activated protein kinase kinase kinase kinase 3 (Homo sapiens), sequence (Q8IVH8 whole entry, canonical isoform): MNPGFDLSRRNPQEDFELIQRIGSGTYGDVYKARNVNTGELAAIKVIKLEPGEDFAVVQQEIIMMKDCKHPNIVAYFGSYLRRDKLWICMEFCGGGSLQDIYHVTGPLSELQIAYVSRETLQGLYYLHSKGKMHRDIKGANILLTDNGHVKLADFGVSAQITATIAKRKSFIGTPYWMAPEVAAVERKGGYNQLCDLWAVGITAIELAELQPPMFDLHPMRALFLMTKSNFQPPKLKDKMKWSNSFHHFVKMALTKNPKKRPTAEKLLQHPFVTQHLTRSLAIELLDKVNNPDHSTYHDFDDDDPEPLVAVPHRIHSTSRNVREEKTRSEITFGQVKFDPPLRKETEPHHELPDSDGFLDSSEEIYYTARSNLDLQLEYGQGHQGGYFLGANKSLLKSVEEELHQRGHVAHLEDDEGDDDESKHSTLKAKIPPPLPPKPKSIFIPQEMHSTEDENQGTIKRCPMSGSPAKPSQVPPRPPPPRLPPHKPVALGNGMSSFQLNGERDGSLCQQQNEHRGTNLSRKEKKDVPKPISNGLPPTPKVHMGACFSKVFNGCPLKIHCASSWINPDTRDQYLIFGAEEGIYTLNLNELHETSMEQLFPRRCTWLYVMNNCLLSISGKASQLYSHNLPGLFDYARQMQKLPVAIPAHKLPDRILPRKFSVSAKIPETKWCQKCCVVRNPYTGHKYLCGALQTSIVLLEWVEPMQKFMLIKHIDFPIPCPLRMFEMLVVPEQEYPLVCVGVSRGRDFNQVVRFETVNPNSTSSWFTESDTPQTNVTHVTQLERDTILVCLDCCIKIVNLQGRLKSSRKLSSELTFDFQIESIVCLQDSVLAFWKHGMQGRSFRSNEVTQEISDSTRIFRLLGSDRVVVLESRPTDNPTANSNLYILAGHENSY

[44] = molecular target: Casein kinase I isoform epsilon (Homo sapiens) (UniProt P49674); settings: Compound concentration 1000.0 nM

RAC-beta serine/threonine-protein kinase (Homo sapiens), sequence (P31751 whole entry): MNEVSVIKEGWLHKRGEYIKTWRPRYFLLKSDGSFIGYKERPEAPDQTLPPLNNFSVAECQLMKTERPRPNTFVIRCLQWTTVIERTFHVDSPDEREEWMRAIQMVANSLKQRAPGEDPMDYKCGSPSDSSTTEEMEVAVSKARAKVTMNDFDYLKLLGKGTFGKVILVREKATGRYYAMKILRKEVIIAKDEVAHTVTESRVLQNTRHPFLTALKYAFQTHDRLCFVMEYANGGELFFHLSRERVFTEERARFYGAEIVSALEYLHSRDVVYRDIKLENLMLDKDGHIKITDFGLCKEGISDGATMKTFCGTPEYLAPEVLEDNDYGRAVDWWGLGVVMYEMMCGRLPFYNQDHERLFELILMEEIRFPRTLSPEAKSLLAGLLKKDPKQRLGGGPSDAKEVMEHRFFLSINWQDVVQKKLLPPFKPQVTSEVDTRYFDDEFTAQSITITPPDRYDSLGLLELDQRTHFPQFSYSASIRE
Serine/threonine-protein kinase SIK1 (Homo sapiens), sequence (P57059 whole entry): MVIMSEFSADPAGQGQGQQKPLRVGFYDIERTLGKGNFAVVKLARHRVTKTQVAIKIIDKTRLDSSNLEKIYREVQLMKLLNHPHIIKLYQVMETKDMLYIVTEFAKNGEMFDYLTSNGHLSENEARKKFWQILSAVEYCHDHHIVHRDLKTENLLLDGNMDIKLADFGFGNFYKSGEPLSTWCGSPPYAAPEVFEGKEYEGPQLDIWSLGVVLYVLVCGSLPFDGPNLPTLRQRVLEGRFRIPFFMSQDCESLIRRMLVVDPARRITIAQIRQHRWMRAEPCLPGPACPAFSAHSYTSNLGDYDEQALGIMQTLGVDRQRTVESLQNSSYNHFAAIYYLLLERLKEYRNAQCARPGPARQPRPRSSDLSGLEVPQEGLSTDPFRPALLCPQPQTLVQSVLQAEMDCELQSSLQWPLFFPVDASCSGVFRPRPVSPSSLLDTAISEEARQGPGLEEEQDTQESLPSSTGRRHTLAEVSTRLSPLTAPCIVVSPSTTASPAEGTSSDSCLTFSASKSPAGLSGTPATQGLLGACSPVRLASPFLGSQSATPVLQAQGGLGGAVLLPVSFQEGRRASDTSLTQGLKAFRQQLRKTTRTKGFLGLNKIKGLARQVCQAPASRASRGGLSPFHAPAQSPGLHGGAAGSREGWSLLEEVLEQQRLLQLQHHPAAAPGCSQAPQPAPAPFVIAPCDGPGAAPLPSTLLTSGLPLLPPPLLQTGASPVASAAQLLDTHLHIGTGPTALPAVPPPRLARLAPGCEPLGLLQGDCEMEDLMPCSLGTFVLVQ

CCCOc1ccc([C@H]2[C@H](C(=O)O)[C@@H](c3ccc4c(c3)OCO4)CN2CC(=O)Nc2c(CC)cccc2CC)cc1 [A-192621]
residual activity [1]: 100% | residual activity [2]: 100% | residual activity [3]: 51% | residual activity [4]: 77% | residual activity [5]: 13% | residual activity [6]: 87% | residual activity [7]: 100% | residual activity [8]: 68% | residual activity [9]: 94% | residual activity [10]: 96% | residual activity [11]: 82% | residual activity [12]: 98% | residual activity [13]: 100% | residual activity [14]: 100% | residual activity [15]: 89% | residual activity [16]: 92% | residual activity [17]: 65% | residual activity [18]: 81% | residual activity [19]: 93% | residual activity [20]: 80% | residual activity [21]: 100% | residual activity [22]: 100% | residual activity [23]: 76% | residual activity [24]: 66% | % Inhibition of Control Values (Mean n=2) [25]: 0.7% | residual activity [26]: 100% | residual activity [27]: 68% | residual activity [28]: 66% | residual activity [29]: 83% | residual activity [30]: 59% | residual activity [31]: 77% | % Inhibition of Control Specific Binding (Mean n=2) [32]: 36.7% | % Inhibition of Control Specific Binding (Mean n=2) [33]: 33.5% | residual activity [34]: 100% | residual activity [35]: 100% | % Inhibition of Control Specific Binding (Mean n=2) [36]: -11.3% | residual activity [37]: 81% | residual activity [38]: 85% | residual activity [39]: 90% | residual activity [40]: 100% | residual activity [41]: 72% | residual activity [42]: 99% | residual activity [43]: 85% | residual activity [44]: 100%

CCCOc1ccc([C@@H]2[C@@H](C(=O)O)[C@H](c3ccc4c(c3)OCO4)CN2CC(=O)Nc2c(CC)cccc2CC)cc1 [A-1806262]
residual activity [1]: 100% | residual activity [2]: 100% | residual activity [3]: 74% | residual activity [4]: 72% | residual activity [5]: 63% | residual activity [6]: 97% | residual activity [7]: 87% | residual activity [8]: 73% | residual activity [9]: 96% | residual activity [10]: 100% | residual activity [11]: 93% | residual activity [12]: 79% | residual activity [13]: 96% | residual activity [14]: 95% | residual activity [15]: 98% | residual activity [16]: 100% | residual activity [17]: 73% | residual activity [18]: 100% | residual activity [19]: 95% | residual activity [20]: 96% | residual activity [21]: 100% | residual activity [22]: 100% | residual activity [23]: 79% | residual activity [24]: 93% | % Inhibition of Control Values (Mean n=2) [25]: 0.6% | residual activity [26]: 80% | residual activity [27]: 81% | residual activity [28]: 80% | residual activity [29]: 98% | residual activity [30]: 100% | residual activity [31]: 89% | % Inhibition of Control Specific Binding (Mean n=2) [32]: 32.2% | % Inhibition of Control Specific Binding (Mean n=2) [33]: 23.5% | residual activity [34]: 100% | residual activity [35]: 100% | % Inhibition of Control Specific Binding (Mean n=2) [36]: -0.6% | residual activity [37]: 90% | residual activity [38]: 100% | residual activity [39]: 97% | residual activity [40]: 100% | residual activity [41]: 83% | residual activity [42]: 90% | residual activity [43]: 100% | residual activity [44]: 98%
